Laboratory results from PubChem BioAssay AID1918998 (Molecular Pharmacology Branch, DTP, NCI, 2023).

Test system: 521955-158-R2-J5-PDC complex spheroid growth
Assay: Anticancer human tumor 521955-158-R2-J5-PDC patient-derived pancreatic carcinoma cell line growth inhibition [AhR]
Conditions: for IC50: curve of first compound; for viability, T/C: stronger effect = lower value
How it was run: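 Complex tumor spheroids co-cultured with HUVEC and human MSC stroma; AhR antagonists tested in combination with standard-of-care and investigational agents. Top concentration at or near clinical Cmax (else 10 microM), half-log dilutions; growth expressed as percent test/control.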

[1] = second compound 0.1 µM, first compound 0.0316 µM
[2] = second compound 0.1 µM, first compound 0.1 µM
[3] = second compound 0.316 µM, first compound 0.0316 µM
[4] = second compound 0.316 µM, first compound 0.1 µM
[5] = second compound 1 µM, first compound 0.0316 µM
[6] = second compound 1 µM, first compound 0.1 µM
[7] = second compound 3.16 µM, first compound 0.0316 µM
[8] = second compound 3.16 µM, first compound 0.1 µM
[9] = second compound 10 µM, first compound 0.0316 µM
[10] = second compound 10 µM, first compound 0.1 µM
[11] = second compound 0.1 µM, first compound 0.316 µM
[12] = second compound 0.1 µM, first compound 1 µM
[13] = second compound 0.1 µM, first compound 3.16 µM
[14] = second compound 0.1 µM, first compound 10 µM
[15] = second compound 0.316 µM, first compound 0.316 µM
[16] = second compound 0.316 µM, first compound 1 µM
[17] = second compound 0.316 µM, first compound 3.16 µM
[18] = second compound 0.316 µM, first compound 10 µM
[19] = second compound 1 µM, first compound 0.316 µM
[20] = second compound 1 µM, first compound 1 µM
[21] = second compound 1 µM, first compound 3.16 µM
[22] = second compound 1 µM, first compound 10 µM
[23] = second compound 3.16 µM, first compound 0.316 µM
[24] = second compound 3.16 µM, first compound 1 µM
[25] = second compound 3.16 µM, first compound 3.16 µM
[26] = second compound 3.16 µM, first compound 10 µM
[27] = second compound 10 µM, first compound 0.316 µM
[28] = second compound 10 µM, first compound 1 µM
[29] = second compound 10 µM, first compound 3.16 µM
[30] = second compound 10 µM, first compound 10 µM
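Throughout, for viability, T/C: spheroids mix tumor cells with HUVEC endothelium and human MSC stroma; luminescence taken as viability surrogate after a week of drug exposure.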

With `CC[C@@]1(O)C(=O)OCc2c1cc1n(c2=O)Cc2cc3c(CN(C)C)c(O)ccc3nc2-1` + Cc1cncc(-c2nc(NCCc3c[nH]c4ccccc34)c3ncn(C(C)C)c3n2)c1 the IC50 (second compound 0.1 µM) was 54.2 nM, the IC50 (second compound 0.316 µM) was 43.7 nM and the IC50 (second compound 1 µM) was 43.1 nM. The IC50 (second compound 3.16 µM) was 58.3 nM, the IC50 (second compound 10 µM) was > 100 nM and the viability, T/C (second compound 0.1 µM, first compound 0.000316 µM) was 95.1%. For the same molecule, the viability, T/C (second compound 0.1 µM, first compound 0.001 µM) was 95.6%, the viability, T/C (second compound 0.1 µM, first compound 0.00316 µM) was 101% and the viability, T/C (second compound 0.1 µM, first compound 0.01 µM) was 76.8%. It also gave a viability, T/C [1] of 72.3%, a viability, T/C [2] of 28.1% and a viability, T/C (second compound 0.316 µM, first compound 0.000316 µM) of 113%. It also gave a viability, T/C (second compound 0.316 µM, first compound 0.001 µM) of 105%, a viability, T/C (second compound 0.316 µM, first compound 0.00316 µM) of 109% and a viability, T/C (second compound 0.316 µM, first compound 0.01 µM) of 78.8%. The viability, T/C [3] was 61.6%, the viability, T/C [4] was 27.1% and the viability, T/C (second compound 1 µM, first compound 0.000316 µM) was 117%. The viability, T/C (second compound 1 µM, first compound 0.001 µM) was 133%, the viability, T/C (second compound 1 µM, first compound 0.00316 µM) was 100% and the viability, T/C (second compound 1 µM, first compound 0.01 µM) was 99%. It also gave a viability, T/C [5] of 56.9%, a viability, T/C [6] of 25.9% and a viability, T/C (second compound 3.16 µM, first compound 0.000316 µM) of 155%. For the same molecule, the viability, T/C (second compound 3.16 µM, first compound 0.001 µM) was 141%, the viability, T/C (second compound 3.16 µM, first compound 0.00316 µM) was 143% and the viability, T/C (second compound 3.16 µM, first compound 0.01 µM) was 111%. It also gave a viability, T/C [7] of 72.6%, a viability, T/C [8] of 30.5% and a viability, T/C (second compound 10 µM, first compound 0.000316 µM) of 214%. The viability, T/C (second compound 10 µM, first compound 0.001 µM) was 158%, the viability, T/C (second compound 10 µM, first compound 0.00316 µM) was 144% and the viability, T/C (second compound 10 µM, first compound 0.01 µM) was 94.5%. For the same molecule, the viability, T/C [9] was 103% and the viability, T/C [10] was 38.5%.
Work on `CCc1c2c(nc3ccc(O)cc13)-c1cc3c(c(=O)n1C2)COC(=O)[C@]3(O)CC` + Cc1cncc(-c2nc(NCCc3c[nH]c4ccccc34)c3ncn(C(C)C)c3n2)c1 yielded an IC50 (second compound 0.1 µM) of 4.04 nM, an IC50 (second compound 0.316 µM) of 3.98 nM and an IC50 (second compound 1 µM) of 4.17 nM. For the same molecule, the IC50 (second compound 3.16 µM) was 4.21 nM, the IC50 (second compound 10 µM) was 3 nM and the viability, T/C (second compound 0.1 µM, first compound 0.000949 µM) was 78.5%. For the same molecule, the viability, T/C (second compound 0.1 µM, first compound 0.003 µM) was 58.6%, the viability, T/C (second compound 0.1 µM, first compound 0.00949 µM) was 25.2% and the viability, T/C (second compound 0.1 µM, first compound 0.03 µM) was 16.5%. It also gave a viability, T/C (second compound 0.1 µM, first compound 0.0949 µM) of 14.9%, a viability, T/C (second compound 0.1 µM, first compound 0.3 µM) of 12.5% and a viability, T/C (second compound 0.316 µM, first compound 0.000949 µM) of 70.1%. The viability, T/C (second compound 0.316 µM, first compound 0.003 µM) was 57.8%, the viability, T/C (second compound 0.316 µM, first compound 0.00949 µM) was 26.5% and the viability, T/C (second compound 0.316 µM, first compound 0.03 µM) was 18%. The viability, T/C (second compound 0.316 µM, first compound 0.0949 µM) was 12.4%, the viability, T/C (second compound 0.316 µM, first compound 0.3 µM) was 12.3% and the viability, T/C (second compound 1 µM, first compound 0.000949 µM) was 90.1%. It also gave a viability, T/C (second compound 1 µM, first compound 0.003 µM) of 60%, a viability, T/C (second compound 1 µM, first compound 0.00949 µM) of 24.5% and a viability, T/C (second compound 1 µM, first compound 0.03 µM) of 21%. For the same molecule, the viability, T/C (second compound 1 µM, first compound 0.0949 µM) was 16.4%, the viability, T/C (second compound 1 µM, first compound 0.3 µM) was 15.2% and the viability, T/C (second compound 3.16 µM, first compound 0.000949 µM) was 70.4%. It also gave a viability, T/C (second compound 3.16 µM, first compound 0.003 µM) of 58.7%, a viability, T/C (second compound 3.16 µM, first compound 0.00949 µM) of 29.7% and a viability, T/C (second compound 3.16 µM, first compound 0.03 µM) of 18.2%. It also gave a viability, T/C (second compound 3.16 µM, first compound 0.0949 µM) of 16.7%, a viability, T/C (second compound 3.16 µM, first compound 0.3 µM) of 10.5% and a viability, T/C (second compound 10 µM, first compound 0.000949 µM) of 98.9%. It also gave a viability, T/C (second compound 10 µM, first compound 0.003 µM) of 49.8%, a viability, T/C (second compound 10 µM, first compound 0.00949 µM) of 24.1% and a viability, T/C (second compound 10 µM, first compound 0.03 µM) of 15.3%. The viability, T/C (second compound 10 µM, first compound 0.0949 µM) was 8.29% and the viability, T/C (second compound 10 µM, first compound 0.3 µM) was 4.78%.
For `Nc1ccccc1NC(=O)c1ccc(CNC(=O)OCc2cccnc2)cc1` + Cc1cncc(-c2nc(NCCc3c[nH]c4ccccc34)c3ncn(C(C)C)c3n2)c1, the IC50 (second compound 0.1 µM) was 5510 nM, the IC50 (second compound 0.316 µM) was 6110 nM and the IC50 (second compound 1 µM) was 5740 nM. For the same molecule, the IC50 (second compound 3.16 µM) was 5350 nM, the IC50 (second compound 10 µM) was 1020 nM and the viability, T/C [1] was 108%. For the same molecule, the viability, T/C [2] was 106%, the viability, T/C [11] was 125% and the viability, T/C [12] was 94.7%. For the same molecule, the viability, T/C [13] was 68.4%, the viability, T/C [14] was 31.5% and the viability, T/C [3] was 117%. It also gave a viability, T/C [4] of 134%, a viability, T/C [15] of 126% and a viability, T/C [16] of 103%. For the same molecule, the viability, T/C [17] was 77.7%, the viability, T/C [18] was 30.4% and the viability, T/C [5] was 133%. It also gave a viability, T/C [6] of 139%, a viability, T/C [19] of 155% and a viability, T/C [20] of 108%. For the same molecule, the viability, T/C [21] was 73.4%, the viability, T/C [22] was 30.5% and the viability, T/C [7] was 138%. It also gave a viability, T/C [8] of 143%, a viability, T/C [23] of 135% and a viability, T/C [24] of 110%. For the same molecule, the viability, T/C [25] was 69.9%, the viability, T/C [26] was 27.2% and the viability, T/C [9] was 135%. The viability, T/C [10] was 125%, the viability, T/C [27] was 101% and the viability, T/C [28] was 48.8%. The viability, T/C [29] was 17.7% and the viability, T/C [30] was 2.9%.
In the case of `Nc1ccn(C2OC(CO)C(O)C2(F)F)c(=O)n1` (stereo not given) + Cc1cncc(-c2nc(NCCc3c[nH]c4ccccc34)c3ncn(C(C)C)c3n2)c1, the IC50 (second compound 0.1 µM) is reported as 571 nM, the IC50 (second compound 0.316 µM) is reported as 501 nM and the IC50 (second compound 1 µM) is reported as 860 nM. It also gave an IC50 (second compound 3.16 µM) of 967 nM, an IC50 (second compound 10 µM) of 604 nM and a viability, T/C [1] of 67.6%. It also gave a viability, T/C [2] of 65.7%, a viability, T/C [11] of 62.2% and a viability, T/C [12] of 38.4%. For the same molecule, the viability, T/C [13] was 31.8%, the viability, T/C [14] was 24.7% and the viability, T/C [3] was 87.5%. The viability, T/C [4] was 80.8%, the viability, T/C [15] was 58.9% and the viability, T/C [16] was 34.8%. For the same molecule, the viability, T/C [17] was 33.6%, the viability, T/C [18] was 22.3% and the viability, T/C [5] was 104%. The viability, T/C [6] was 86%, the viability, T/C [19] was 70.4% and the viability, T/C [20] was 42.6%. The viability, T/C [21] was 38.3%, the viability, T/C [22] was 25.3% and the viability, T/C [7] was 116%. The viability, T/C [8] was 97.5%, the viability, T/C [23] was 73.7% and the viability, T/C [24] was 47.7%. For the same molecule, the viability, T/C [25] was 36%, the viability, T/C [26] was 26.1% and the viability, T/C [9] was 151%. It also gave a viability, T/C [10] of 99.3%, a viability, T/C [27] of 67.2% and a viability, T/C [28] of 36%. The viability, T/C [29] was 27.7% and the viability, T/C [30] was 22.2%.
`O=C(c1cc(Cc2n[nH]c(=O)c3ccccc23)ccc1F)N1CCN(C(=O)C2CC2)CC1` + Cc1cncc(-c2nc(NCCc3c[nH]c4ccccc34)c3ncn(C(C)C)c3n2)c1 was tested, and the IC50 (second compound 0.1 µM) was > 10000 nM, the IC50 (second compound 0.316 µM) was > 10000 nM and the IC50 (second compound 1 µM) was > 10000 nM. For the same molecule, the IC50 (second compound 3.16 µM) was > 10000 nM, the IC50 (second compound 10 µM) was > 10000 nM and the viability, T/C [1] was 106%. The viability, T/C [2] was 97.8%, the viability, T/C [11] was 113% and the viability, T/C [12] was 106%. For the same molecule, the viability, T/C [13] was 98%, the viability, T/C [14] was 92.4% and the viability, T/C [3] was 101%. For the same molecule, the viability, T/C [4] was 114%, the viability, T/C [15] was 109% and the viability, T/C [16] was 102%. The viability, T/C [17] was 86.9%, the viability, T/C [18] was 99.5% and the viability, T/C [5] was 119%. The viability, T/C [6] was 116%, the viability, T/C [19] was 115% and the viability, T/C [20] was 99.4%. It also gave a viability, T/C [21] of 104%, a viability, T/C [22] of 89.2% and a viability, T/C [7] of 142%. The viability, T/C [8] was 133%, the viability, T/C [23] was 121% and the viability, T/C [24] was 135%. For the same molecule, the viability, T/C [25] was 115%, the viability, T/C [26] was 126% and the viability, T/C [9] was 139%. For the same molecule, the viability, T/C [10] was 156%, the viability, T/C [27] was 167% and the viability, T/C [28] was 117%. It also gave a viability, T/C [29] of 114% and a viability, T/C [30] of 123%.
